# Experiments:
# [1] = Selectivity index was determined by the ratio of CC50 to IC50; assay type: functional
# [2] = target: Human immunodeficiency virus type 1 reverse transcriptase (Human immunodeficiency virus 1) (UniProt Q72547); assay: Tested for the inhibition of HIV-1 reverse transcriptase at a concentration of 10 ug/mL using a ribosomal RNA template
# CEM-SS [3] = assay: Tested for the cytotoxicity against CEM-SS cells (determined by the inhibition of [3H]-thymidine uptake); assay type: functional; settings: Homo sapiens
# [4] = target: Human immunodeficiency virus type 1 reverse transcriptase (Human immunodeficiency virus 1) (UniProt Q72547); assay: Tested for the inhibition of HIV-1 reverse transcriptase at a concentration of 100 ug/mL using a ribosomal RNA template
# CEM-SS [5] = assay: Tested for the inhibition of HIV-1 in CEM-SS cells measured using Syncytial assay; assay type: functional, cell-based; settings: Homo sapiens
# [6] = target: Human immunodeficiency virus type 1 reverse transcriptase (Human immunodeficiency virus 1, UniProt Q72547); assay: Tested for the inhibition of HIV-1 reverse transcriptase using a ribosomal RNA template
IC50 [6] [nM],SMILES,Selectivity index [1],inhibition [2] [%],CC50 (CEM-SS [3]) [µM],inhibition [4] [%],IC50 (CEM-SS [5]) [µM]
,CC(Cn1c(S)nc2ccccc21)NCc1ccccc1 (stereo not drawn),19,17,82,36,4.3
,CC(C)=CCN1Cc2cccc3[nH]c(=S)n(c23)C[C@@H]1C,,,79,,0.026
,CC(C)=CCNC(C)Cn1c(S)nc2ccccc21 (stereo not drawn),,19,81,46,23
,CC(Cn1c(S)nc2ccccc21)N(C)Cc1ccccc1 (stereo not drawn),,13,79,31,20
15.5,CC(C)=CCN1Cc2cc(Cl)cc3[nH]c(=S)n(c23)C[C@@H]1C,,,35,,0.055
,C=CCN(C)C(C)Cn1c(S)nc2ccccc21 (stereo not drawn),,,> 100,,23
,C=CCNC(C)Cn1c(S)nc2ccccc21 (stereo not drawn),,4.5,> 100,29,28
,CC(C)=CCN(C)C(C)Cn1c(S)nc2ccccc21 (stereo not drawn),,19,> 100,34,14
